Experimental findings from ChEMBL document CHEMBL5465560, “Selectivity Literature for EUbOPEN Chemogenomic Library” (2024) are described below.

Assay [1] has as its target T1, Serine/threonine-protein kinase TBK1 (Homo sapiens) (UniProt Q9UHD2).
T1 sequence (whole entry): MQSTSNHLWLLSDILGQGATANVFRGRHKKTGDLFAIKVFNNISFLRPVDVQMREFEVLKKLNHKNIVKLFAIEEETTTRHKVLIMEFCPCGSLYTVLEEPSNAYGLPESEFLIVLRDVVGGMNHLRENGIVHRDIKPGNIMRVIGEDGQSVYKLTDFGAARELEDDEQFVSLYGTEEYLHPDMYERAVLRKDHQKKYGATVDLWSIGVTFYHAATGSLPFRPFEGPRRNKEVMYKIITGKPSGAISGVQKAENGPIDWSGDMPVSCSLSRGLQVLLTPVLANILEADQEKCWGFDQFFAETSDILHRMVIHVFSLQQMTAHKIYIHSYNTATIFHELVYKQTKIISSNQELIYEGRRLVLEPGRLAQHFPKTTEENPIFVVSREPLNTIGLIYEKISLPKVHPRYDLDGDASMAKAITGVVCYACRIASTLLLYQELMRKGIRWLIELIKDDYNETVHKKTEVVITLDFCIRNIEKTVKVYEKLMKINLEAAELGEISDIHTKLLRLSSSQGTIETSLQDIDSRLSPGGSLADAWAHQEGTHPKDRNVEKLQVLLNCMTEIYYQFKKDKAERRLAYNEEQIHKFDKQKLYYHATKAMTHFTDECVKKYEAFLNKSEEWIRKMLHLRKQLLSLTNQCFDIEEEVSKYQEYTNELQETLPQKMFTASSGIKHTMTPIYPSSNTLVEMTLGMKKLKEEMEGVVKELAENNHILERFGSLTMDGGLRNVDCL
The experiment in a line: Selectivity interaction (KinomeScan (DiscoverX)) EUB0001049a TBK1. Conditions: at 1 µM.

Assay [2] deals with T2, Mitogen-activated protein kinase kinase kinase 3 (Homo sapiens) (UniProt Q99759).
T2 sequence (whole entry): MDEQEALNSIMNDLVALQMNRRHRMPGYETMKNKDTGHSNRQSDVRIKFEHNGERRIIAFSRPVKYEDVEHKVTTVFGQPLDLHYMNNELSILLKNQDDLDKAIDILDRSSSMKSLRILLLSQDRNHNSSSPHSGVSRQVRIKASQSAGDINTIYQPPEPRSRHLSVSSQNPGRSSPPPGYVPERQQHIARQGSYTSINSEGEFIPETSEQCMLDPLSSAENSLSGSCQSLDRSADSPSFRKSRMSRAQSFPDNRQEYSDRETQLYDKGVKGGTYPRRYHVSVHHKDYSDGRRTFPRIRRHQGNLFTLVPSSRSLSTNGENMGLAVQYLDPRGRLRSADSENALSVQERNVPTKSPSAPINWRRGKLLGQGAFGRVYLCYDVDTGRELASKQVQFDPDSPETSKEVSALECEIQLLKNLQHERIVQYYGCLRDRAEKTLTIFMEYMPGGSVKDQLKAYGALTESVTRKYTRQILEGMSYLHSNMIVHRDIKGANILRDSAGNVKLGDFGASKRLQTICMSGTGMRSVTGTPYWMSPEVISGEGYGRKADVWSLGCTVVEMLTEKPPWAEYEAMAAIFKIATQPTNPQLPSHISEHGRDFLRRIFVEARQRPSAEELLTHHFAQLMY
The assay is described as follows: Selectivity interaction (ActivX KiNativ screen (kinase selectivity in THP-1 cell lysates)) EUB0000639a MAP3K3. It counts as subcellular. Conditions: lysate, at 0.2 µM.

In assay [3] the target is MAP/microtubule affinity-regulating kinase 3 (Homo sapiens) (UniProt P27448). The assay is described as follows: Selectivity interaction (ActivX KiNativ screen (kinase selectivity in THP-1 cell lysates)) EUB0000639a MARK3. The following applies: lysate, at 0.2 µM. It counts as subcellular.
Sequence of MAP/microtubule affinity-regulating kinase 3 (Homo sapiens) (P27448 whole entry, looked up): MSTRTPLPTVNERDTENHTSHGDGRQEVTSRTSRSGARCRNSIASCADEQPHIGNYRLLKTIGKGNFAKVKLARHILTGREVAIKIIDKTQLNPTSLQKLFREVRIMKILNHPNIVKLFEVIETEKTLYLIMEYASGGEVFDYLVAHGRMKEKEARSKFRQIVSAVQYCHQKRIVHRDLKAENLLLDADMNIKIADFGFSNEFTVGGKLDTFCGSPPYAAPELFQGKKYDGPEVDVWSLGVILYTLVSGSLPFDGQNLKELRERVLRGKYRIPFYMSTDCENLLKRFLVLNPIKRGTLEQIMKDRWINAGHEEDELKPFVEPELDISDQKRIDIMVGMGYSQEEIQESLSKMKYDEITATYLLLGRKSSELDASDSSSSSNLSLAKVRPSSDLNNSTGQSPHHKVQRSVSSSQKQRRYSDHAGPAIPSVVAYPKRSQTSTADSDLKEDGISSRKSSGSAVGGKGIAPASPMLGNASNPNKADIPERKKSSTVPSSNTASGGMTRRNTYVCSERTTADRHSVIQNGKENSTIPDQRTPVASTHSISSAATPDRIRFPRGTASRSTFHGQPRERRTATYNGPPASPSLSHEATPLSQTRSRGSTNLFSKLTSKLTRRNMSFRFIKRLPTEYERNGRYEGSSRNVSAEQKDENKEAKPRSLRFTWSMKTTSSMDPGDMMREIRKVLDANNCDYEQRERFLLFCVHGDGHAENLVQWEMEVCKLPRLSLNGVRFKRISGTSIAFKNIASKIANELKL
Assay [4] concerns the target T3, Serine/threonine-protein kinase NLK (Homo sapiens) (UniProt Q9UBE8).
T3 sequence (whole entry): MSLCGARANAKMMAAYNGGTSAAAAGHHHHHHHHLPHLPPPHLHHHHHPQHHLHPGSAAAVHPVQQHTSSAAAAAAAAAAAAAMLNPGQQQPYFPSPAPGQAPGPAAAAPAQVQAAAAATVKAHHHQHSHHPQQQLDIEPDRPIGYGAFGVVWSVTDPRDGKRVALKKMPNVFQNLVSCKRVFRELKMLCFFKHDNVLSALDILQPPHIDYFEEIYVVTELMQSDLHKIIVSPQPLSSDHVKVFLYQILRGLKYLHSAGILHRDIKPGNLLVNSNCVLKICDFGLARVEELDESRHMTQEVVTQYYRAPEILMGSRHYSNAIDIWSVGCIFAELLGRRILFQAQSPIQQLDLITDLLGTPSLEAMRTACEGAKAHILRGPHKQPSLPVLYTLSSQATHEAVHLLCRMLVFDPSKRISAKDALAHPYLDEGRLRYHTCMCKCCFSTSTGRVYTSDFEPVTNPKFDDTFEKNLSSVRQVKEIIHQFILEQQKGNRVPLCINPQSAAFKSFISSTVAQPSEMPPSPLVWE
Conditions: at 10 µM.

The target in assay [5] is T4, Ephrin type-B receptor 1 (Homo sapiens) (UniProt P54762).
T4 sequence (whole entry): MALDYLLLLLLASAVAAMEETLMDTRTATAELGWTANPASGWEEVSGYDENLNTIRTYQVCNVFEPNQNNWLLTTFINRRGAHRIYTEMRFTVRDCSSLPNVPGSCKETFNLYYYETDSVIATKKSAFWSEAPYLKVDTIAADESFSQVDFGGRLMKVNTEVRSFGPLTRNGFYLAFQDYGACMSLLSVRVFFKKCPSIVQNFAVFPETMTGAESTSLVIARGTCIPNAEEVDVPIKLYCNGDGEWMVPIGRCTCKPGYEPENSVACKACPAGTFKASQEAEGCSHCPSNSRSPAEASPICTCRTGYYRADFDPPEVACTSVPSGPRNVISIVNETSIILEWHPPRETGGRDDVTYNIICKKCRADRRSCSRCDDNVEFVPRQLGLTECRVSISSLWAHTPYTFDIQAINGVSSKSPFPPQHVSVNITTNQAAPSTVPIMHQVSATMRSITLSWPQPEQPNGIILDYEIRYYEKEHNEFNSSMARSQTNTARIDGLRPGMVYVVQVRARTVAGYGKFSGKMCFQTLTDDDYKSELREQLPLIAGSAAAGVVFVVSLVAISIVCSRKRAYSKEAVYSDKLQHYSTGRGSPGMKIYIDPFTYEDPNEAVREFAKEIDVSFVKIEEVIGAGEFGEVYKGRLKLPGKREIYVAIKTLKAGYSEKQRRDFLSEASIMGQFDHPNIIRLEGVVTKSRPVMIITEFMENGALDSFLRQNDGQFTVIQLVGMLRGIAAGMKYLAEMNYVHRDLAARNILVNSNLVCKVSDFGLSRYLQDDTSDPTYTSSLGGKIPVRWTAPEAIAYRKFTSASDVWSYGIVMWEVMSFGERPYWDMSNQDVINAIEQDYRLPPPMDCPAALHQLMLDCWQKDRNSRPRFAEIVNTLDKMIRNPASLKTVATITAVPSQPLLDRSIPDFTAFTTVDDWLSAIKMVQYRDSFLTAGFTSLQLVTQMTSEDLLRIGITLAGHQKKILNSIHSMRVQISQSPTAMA
The assay is described as follows: Selectivity interaction (KinomeScan (DiscoverX)) EUB0000595a EPHB1. The following applies: at 10 µM.

Take `COc1cc(Nc2nc(C)cc(-c3cnn4nc(OC)ccc34)n2)cc(C(F)(F)F)c1`: the % of control in assay [1] is 80%.
In the case of `CC[C@@H]1[C@H](F)C(=O)N[C@@H]1COc1nccc2cc(C(N)=O)c(OC)cc12` [ZIMLOVISERTIB], the results for the % of inhibition in assay [2] and in assay [3] were -0.9% and 19.8%, respectively.
Take `COCC(=O)NC/C=C/c1ccc2ncnc(Nc3ccc(Oc4ccc(C)nc4)c(C)c3)c2c1` [CP-724714]: the % of control in assay [4] and in assay [5] was 100% throughout.
